Results taken from EP2229935A1, “Peptide derivatives or pharmaceutically acceptable salts thereof, method for producing the same, use of said derivatives and pharmaceutical composition” (Nebolsin, Vladimir Evgenievich, priority 1997, dated 1999).
Marks after values point to notes of the source that are not given here.

What was measured:
[1] = system: hydroxyl radical; experiment: Hydroxyl radical formation in the Fenton reagent (chemiluminescence); format: biochemical
Protocol: Active oxygen forms (AOF) of different nature were generated in the following systems: • A. Hydroxyl radical - in the mixture of FeSO4 with H2O2 (the Fenton reagent) [Halliwell B. Superoxide-dependent formation of hydroxyl radicals in the presence of iron salts. […] Incubation medium comprised 5 mM KH2PO4 (pH 7.4); 5 mM FeSO4; 2 mM luminol. H2O2 at final concentration 5 mM was introduced into a cuvette through a dispencer following background luminescence recording of the reagents' mixture. 5 to 10 ml of the test compounds dissolved in water were at needed concentration introduced into a cuvette.
CL flash recording duration after mixing ingredients, depended on a particular process kinetics. For each system, CL light sum (mV) was determined in the control samples without preparations (I-) and in samples comprising respective concentrations of preparations (I+). To estimate CL inhibition (activation) degree, the I+/I- ratio (in relative units) was found in the studied systems.
When H2O2 was introduced into phosphate buffer comprising iron sulfate, CL flash occured which was caused by formation of predominantly hydroxyl radical in the reaction mixture.

[2] = system: mongrel female rats; experiment: Hepatoprotective activity: subchronic liver lesion (hepatitis) with CCl4; format: in vivo; details: rats, CCl4 hepatitis; for Cholesterol level, mg/100 ml VLDL-CS / Cholesterol level, mg/100 ml LDL-CS / Cholesterol level, mg/100 ml HDL-CS / Cholesterol level, mg/100 ml total-CS / TG level, mg/100ml / ALT, nM/dl / AST, nM/dl: blood serum; for Cholesterol level, mg/100 ml VLDL-CS: TG/5; for Cholesterol level, mg/100 ml LDL-CS: calculated by formula; for ALT, nM/dl / AST, nM/dl: oral 8 days; for Lipid composition (in percent of total lipids) FCS / Lipid composition (in percent of total lipids) Phospholipids / Lipid composition (in percent of total lipids) Triglycerides: liver
Protocol: Hepatoprotective properties of the compounds were studied on a model of subchronic liver lesion (hepatitis) with carbon quadrichloride.
70 mongrel female rats with initial body mass 190-200 g fed a standard vivarium ration, were used in experiment. Animals were divided into 7 groups (10 rats each): • Group 1 - control one; during the first four days of experiment animals were subcutaneously injected 0.2 ml vaseline oil; • Group 2 - during the first four days animals were subcutaneously injected 50% CCl4 solution in vaseline oil at a rate of 0.1 ml per 100 g body mass; • Group 3 - Legalon in a starch gel was administered orally for 8 days at a dose 30 mg/kg against the background of CCl4 administration; […] , resepectively, was administered in a way similar to group III; […] , resepectively, was administered in a way similar to group III.
The test compounds and Legalon were administered to animals 1 hour prior to CCl4 administration. 24 hours after the last administration of the drugs, animals were decapitated.
Activity of blood serum transaminases ALT and AST was assessed using the conventional Frenkel-Rightman method [Laboratory examination methods in the clinic. Ed. by Menshikov V.V. Moscow, Meditsina publishers (1969), 302 pp.].
The published method [Rodionova L.P. Modification of blood serum trigyceride level determination method. Laboratomoye delo (Laboratory Matter) (1980), No 5, pp. 297-299] was used to determine blood serum TG level.
Blood serum LP final product MDA was determined using the published method [Korobeinikova E.N. Modification of lipid peroxydation product determination in reaction with thiobarbituric acid. Laboratomoye delo (Laboratory Matter) (1989), No 7, pp. 8-10]. Concentration of TBA-active products was calculated using regression equation: C = 0.21 + 0.26D, [formula] where C - concentration of TBA-active products (in nM MDA per 1 ml of serum), D - index D535 -D580 (in optic density units).
Total hepatic lipids were extracted using the modified Folch method [Cates M. Technology of Lipidology. Moscow, Mir publishers (1975), pp. 74-76]. Quantative content of lipid fractions was assessed with thin layer chromatography method (TLC) using the system of solvents hexane:diethyl ether:acetic acid at ratio 80:20:2. Zones of individual lipid fractions were determined using 10% alcohol solution of phosphoromolyobdenic acid which following elution were spectrophotometrically analysed at 600 nm.
Hepatic MDA level was determined using the published method [Stalnaya I.D., Garishvili T.G. Malonic dialdehyde determination method using thiobarbituric acid. In: Modem methods in biochemistry. Moscow, Meditsina publishers (1977), pp. 66-69]. MDA quantity was calculated using molar extinction coefficient value of stained trimethynic complex formed by MDA with two TBA molecules: E = 1.56 × 10^5 (cm)^-1 × M^-1 [formula]

[3] = system: progesterone, 17-oxyprogesterone, 11-desoxycortisol and cortisol; experiment: Blood serum hormone levels (radioimmunoassay); format: in vivo, guinea pigs; details: oral three times 50 µg/kg
Protocol: Sensibilization of animals was done as described in example 27. Blood for hormonal level determination was sampled in animals before commencement of experiment and 18 hours after the last drug administration from 10 to 11 hours. […] A comparative hormonal state analysis was carried out by individual changes in each animal in a group. Mean parametric values expressed in nM/l, are presented by the groups in table 21.
Blood serum levels of the hormones progesterone, 17-oxyprogesterone, 11-desoxycortisol and cortisol were determined by radioimmunoassay using the Beloris company kits. Hormone concentration in samples was determined by the relation graph between the activity of a precipitated bound labelled hormone and hormone concentration in the calibration samples.

[4] = system: peritoneal macrophages; experiment: Activity of peritoneal macrophages (NBT reduction test); format: in vivo, mongrel white male mice
Protocol: Change in the activity of peritoneal macrophages (PM) as effected by the test compounds was studied.
Experiments were carried out on mongrel white male mice with initial body mass 20-22 g. Each group included 10 animals. Compounds III, VI, XLIV were dissolved in normal saline (NS). The test compounds were administered to animals orally for three days at doses 50 and 500 µg/kg. Animals of the control group were given equal volume of NS. Mice were sacrified 20 hours after the last compound administration, peritoneal cavity was washed with 1.5 ml Henks solution comprising 5 U/ml heparine. 0.1 ml of wash solution were incubated for 30 minutes at 37°C with 0.1 ml 0.2% nitroblue tetrasolium (NBT) solution, then smears were prepared. Nuclei were additionaly stained with o.1% neutral red solution. Results were expressed in percent of active cells [Klimov V.V., Kolovkina T.V. Nitroblue tetrasolium reduction test stimulated with pyrogenal. Laborotornoye delo (Laboratory matter) (1982), No 10, pp. 624-625]. […]

Substance: γ-L-glutamylhistamine [compound XLIV]
- relative effect: I+/I- ([1]; 1 µM): 1.0
- Chemiluminiscence intensity (mV) + σn-1 ([1]; 1 µM, control of the series as in the table): 7747 ± 259 mV
- relative effect: I+/I- ([1]; 0.01 mM): 0.83
- Chemiluminiscence intensity (mV) + σn-1 ([1]; 0.01 mM, control of the series as in the table): 6444 ± 267 mV
- relative effect: I+/I- ([1]; 0.1 mM): 0.59
- Chemiluminiscence intensity (mV) + σn-1 ([1]; 0.1 mM, control of the series as in the table): 4625 ± 393 mV
- relative effect: I+/I- ([1]; 1 mM): 0.28 (*)
- Chemiluminiscence intensity (mV) + σn-1 ([1]; 1 mM, control of the series 7839 ± 171, 1120 ± 163, 4974 ± 283 or 1332 ± 172): 2197 ± 311 mV
- Cholesterol level, mg/100 ml VLDL-CS ([2]; 0.05 µg/kg): 13.9 ± 1.1 p<0.01 mg/100 ml
- Cholesterol level, mg/100 ml VLDL-CS ([2]; 0.5 µg/kg): 12.4 ± 0.7 p<0.001 mg/100 ml
- Cholesterol level, mg/100 ml LDL-CS ([2]; 0.05 µg/kg): 21.9 ± 1.1 p<0.001 mg/100 ml
- Cholesterol level, mg/100 ml LDL-CS ([2]; 0.5 µg/kg): 17.1 ± 1.0 p<0.01 mg/100 ml
- Cholesterol level, mg/100 ml HDL-CS ([2]; 0.05 µg/kg): 49.6 ± 2.5 mg/100 ml
- Cholesterol level, mg/100 ml total-CS ([2]; 0.05 µg/kg): 85.3 ± 3.9 mg/100 ml
- TG level, mg/100ml ([2]; 0.05 µg/kg): 68.3 ± 5.7 p<0.001 mg/100ml
- Cholesterol level, mg/100 ml HDL-CS ([2]; 0.5 µg/kg): 57.5 ± 5.1 mg/100 ml
- Cholesterol level, mg/100 ml total-CS ([2]; 0.5 µg/kg): 87.2 ± 6.5 mg/100 ml
- TG level, mg/100ml ([2]; 0.5 µg/kg): 62.4 ± 3.9 p<0.001 mg/100ml
- ALT, nM/dl ([2]; daily dose 0.05 mg/kg): 599 ± 18 nM/dl
- AST, nM/dl ([2]; daily dose 0.05 mg/kg): 470 ± 17 nM/dl
- ALT, nM/dl ([2]; daily dose 0.50 mg/kg): 551 ± 28 nM/dl
- AST, nM/dl ([2]; daily dose 0.50 mg/kg): 475 ± 19 nM/dl
- Lipid composition (in percent of total lipids) FCS ([2]; 0.05 µg/kg): 18.0 ± 0.8% of total lipids
- Lipid composition (in percent of total lipids) Phospholipids ([2]; 0.05 µg/kg): 22.8 ± 0.9% of total lipids
- Lipid composition (in percent of total lipids) Triglycerides ([2]; 0.05 µg/kg): 39.9 ± 1.7% of total lipids
- Lipid composition (in percent of total lipids) FCS ([2]; 0.5 µg/kg): 20.6 ± 0.8 p<0.05% of total lipids
- Lipid composition (in percent of total lipids) Phospholipids ([2]; 0.5 µg/kg): 26.1 ± 0.6 p<0.001% of total lipids
- Lipid composition (in percent of total lipids) Triglycerides ([2]; 0.5 µg/kg): 33.9 ± 1.0 p<0.05% of total lipids
- Hepatic MDA, nM/l ([2]; 0.05 mg/kg): 4.47 ± 0.45 p<0.05 nM/l
- Serum MDA, nM/l ([2]; 0.05 mg/kg): 5.82 ± 0.38 p<0.05 nM/l
- Hepatic MDA, nM/l ([2]; 0.50 mg/kg): 3.51 ± 0.30 p<0.001 nM/l
- Serum MDA, nM/l ([2]; 0.50 mg/kg): 4.72 ± 0.57 p<0.01 nM/l
- Progesterone, blood serum level (Experiment) ([3]; intact guinea pigs, individual control 2.53): 2.87 nM/l
- Oxyprogesterone, blood serum level (Experiment) ([3]; intact guinea pigs, individual control 2.83): 3.88* nM/l
- Desoxycortisol, blood serum level (Experiment) ([3]; intact guinea pigs, individual control 20.8): 30.95* nM/l
- Cortisol, blood serum level (Experiment) ([3]; intact guinea pigs, individual control 1474.5): 1891.5* nM/l
- Progesterone, blood serum level (Experiment) ([3]; sensitized guinea pigs, individual control 1.73): 5.08** nM/l
- Oxyprogesterone, blood serum level (Experiment) ([3]; sensitized guinea pigs, individual control 1.79): 2.31* nM/l
- Desoxycortisol, blood serum level (Experiment) ([3]; sensitized guinea pigs, individual control 28.9): 33.5 nM/l
- Cortisol, blood serum level (Experiment) ([3]; sensitized guinea pigs, individual control 1910.3): 1997.0 nM/l
- portion of active macrophages ([4]; mice, oral three days at 50 and 500 µg/kg): more pronounced at a dose 500 µg/kg
- Activity of macrophages, percent ([4]; score 0 (no formazane inclusions, inactive PM), 50 µg/kg orally for three days): 23.9 ± 4.4%
- Activity of macrophages, percent ([4]; score 0 (no formazane inclusions, inactive PM), 500 µg/kg orally for three days): 17.4 ± 2.5%
- Activity of macrophages, percent ([4]; score 1 (single formazane inclusions), 50 µg/kg orally for three days): 37.3 ± 3.4%
- Activity of macrophages, percent ([4]; score 1 (single formazane inclusions), 500 µg/kg orally for three days): 37.3 ± 3.9%
- Activity of macrophages, percent ([4]; score 2 (inclusions fill up to 1/3 of PM cytoplasm), 50 µg/kg orally for three days): 34.9 ± 5.9%
- Activity of macrophages, percent ([4]; score 2 (inclusions fill up to 1/3 of PM cytoplasm), 500 µg/kg orally for three days): 35.8 ± 4.4%
- Activity of macrophages, percent ([4]; score 3 (inclusions fill up to 1/2 of PM cytoplasm), 50 µg/kg orally for three days): 5.4 ± 2.0%
- Activity of macrophages, percent ([4]; score 3 (inclusions fill up to 1/2 of PM cytoplasm), 500 µg/kg orally for three days): 9.4 ± 2.9%
